Patent US20190153021A1, “THERAPEUTIC COMPOUNDS” (UNIVERSITY OF IOWA RESEARCH FOUNDATION, priority 2015, published 2019)

Columns and labels:
[1] = simplified steroidal aglycone; cited from earlier work
[2] = Metabolic stability and pharmacokinetics, cleavage of ester groups in mouse blood; format: in vitro ADME
[3] = In vivo efficacy of OSW-1
dormant cancer cells = conditions: independent of cell cycle; cited from earlier work
[4] = tested on: NCI 60 cell-line tumor panel; conditions: cited from earlier work

| Compound | in vitro anticancer activity compared with compound 1 [1] | pharmacokinetics (PK) [2] | metabolic stability: cleavage of the two ester groups ([2]; enzymes in mouse blood, gives major metabolite 2) | in vivo efficacy [3] | concentration that effectively kills dormant cancer cells (dormant cancer cells) | IC50 ([4]; mean over NCI 60-cell in vitro screen) [pM] | anticancer activities, times more potent than many well-known anticancer drugs in clinical use ([4]; relative potency) |
| --- | --- | --- | --- | --- | --- | --- | --- |
| COc1ccc(C(=O)OC2C(OC3C(O)COC(O[C@H]4C[C@@H]5[C@H](CC[C@H]6[C@H]5CC=C5C[C@@H](O)CC[C@@]56C)[C@H]4[C@H](C)CCCC(C)C)C3OC(C)=O)OCC(O)C2O)cc1 (stereo partly shown) [Compound 3] | similar | – | – | – | – | – | – |
| COc1ccc(C(=O)O[C@H]2[C@H](O[C@@H]3[C@@H](OC(C)=O)[C@H](O[C@H]4C[C@H]5[C@@H]6CC=C7C[C@@H](O)CC[C@]7(C)[C@H]6CC[C@]5(C)[C@@]4(O)[C@H](C)C(=O)CCC(C)C)OC[C@@H]3O)OC[C@@H](O)[C@@H]2O)cc1 [OSW-1] | – | poor | quickly cleaved | relatively weak | sub-nM | 780 | 10-100 times |
